From patent publication US20060062739A1 (priority 2004, published 2006)

Assays:
[1] = test system: subjects with severe asthma treated with oral corticosteroids; test: Lidocaine for reducing concurrent corticosteroids in steroid dependent severe asthma (Example 7); type: in vivo, human; details: interim, all patients past visit 7
[2] = test system: mild to moderate asthma patients; details: human, in vivo

CCN(CC)CC(=O)Nc1c(C)cccc1C [lidocaine, acetamide 2-(diethylamino)-N-(2,6-dimethylphenyl)]
relation of reported adverse events to treatment [1]: None of the reported adverse events were thought to be related to the lidocaine treatment | bronchospasm (decrease in FEV1 >20% 30 min after aerosol administration) [2]: no reports of bronchospasm | loss of gag reflex [2]: No loss of gag reflex was reported | tolerability and safety overall [2]: no significant adverse events related to study drug | tracheal aspiration of food or liquid [2]: No case of tracheal aspiration of food or liquid was reported
